Tests used:
Type in all cases: binding
AtACO2 = AtACO2 (Arabidopsis thaliana, UniProt Q41931); test: intrinsic tryptophan fluorescence quenching; settings: 5 µM enzyme, Ni(II), 50 mM Tris pH 7.5, 28 °C; negative control (non-binder)
PhACO1 [1] = target: PhACO1 (Petunia x hybrida, UniProt Q08506); test: isothermal titration calorimetry
PhACO1 [2] = target: PhACO1 (Petunia x hybrida, UniProt Q08506, R244A); test: isothermal titration calorimetry
PhACO1 (Petunia x hybrida, UniProt Q08506, R244A), sequence (Q08506 whole entry R244A): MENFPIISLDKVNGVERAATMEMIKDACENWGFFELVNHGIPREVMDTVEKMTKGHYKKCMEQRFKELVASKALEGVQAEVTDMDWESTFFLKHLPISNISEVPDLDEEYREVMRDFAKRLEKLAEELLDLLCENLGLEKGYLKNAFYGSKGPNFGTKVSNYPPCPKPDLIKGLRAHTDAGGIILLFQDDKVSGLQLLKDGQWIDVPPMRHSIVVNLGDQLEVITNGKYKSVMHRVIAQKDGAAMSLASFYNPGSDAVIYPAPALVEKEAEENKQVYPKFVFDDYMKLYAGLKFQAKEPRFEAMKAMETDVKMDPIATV

AtACO2, sequence (Q41931 whole entry): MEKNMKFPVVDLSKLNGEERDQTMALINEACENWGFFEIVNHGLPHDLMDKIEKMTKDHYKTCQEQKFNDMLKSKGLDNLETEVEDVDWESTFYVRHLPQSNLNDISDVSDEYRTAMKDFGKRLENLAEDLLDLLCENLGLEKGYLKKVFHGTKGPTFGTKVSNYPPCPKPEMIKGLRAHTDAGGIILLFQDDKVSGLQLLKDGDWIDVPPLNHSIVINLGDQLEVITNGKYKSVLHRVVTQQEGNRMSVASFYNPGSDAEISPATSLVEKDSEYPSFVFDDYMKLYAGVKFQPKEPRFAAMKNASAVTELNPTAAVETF
PhACO1 (Petunia x hybrida, UniProt Q08506), sequence (Q08506 whole entry): as the sequence (Q08506 whole entry R244A) above, with A244R counted along it

Row | SMILES | intrinsic tryptophan fluorescence quenching (AtACO2) | Kd (PhACO1 [1]) [µM] | Kd (PhACO1 [2]) [µM]
1 | O=C(O)c1ccccc1 [benzoic acid] | benzoic acid did not quench fluorescence |  | 
2 | O=C(O)c1cnccn1 [POA] |  | 69.5 | 104

— article doi:10.64898/2025.12.04.692314v1 (biorxiv, 2025)
